Experiment [1] has as its system Cnaphalocrocis medinalis. The experiment is described as follows: Antifeedant activity against 4 hr starved fifth-instar larval stage of Cnaphalocrocis medinalis infested compound-treated rice leaves assessed as approximate digestibility at 1 ppm measured every 24 hr for 4 days by gravimetric method (reference value: 44.81 +/- 4.12%). Type of experiment: functional.

In experiment [2] the test system is Cnaphalocrocis medinalis. The experiment can be described thus: Antifeedant activity against 4 hr starved fifth-instar larval stage of Cnaphalocrocis medinalis infested compound-treated rice leaves assessed as relative consumption rate at 1 ppm measured every 24 hr for 4 days by gravimetric method (reference value: 0.524 +/- 0.03 mg/mg/day). Type of experiment: functional.

The test system of experiment [3] is Cnaphalocrocis medinalis. The experiment is described as follows: Antifeedant activity against 4 hr starved fifth-instar larval stage of Cnaphalocrocis medinalis infested compound-treated rice leaves assessed as efficacy of conversion of digested food at 1 ppm measured every 24 hr for 4 days by gravimetric method (reference value: 46.45 +/- 4.12%). The format is functional.

In experiment [4] the test system is Cnaphalocrocis medinalis. The experiment is described as follows: Antifeedant activity against 4 hr starved fifth-instar larval stage of Cnaphalocrocis medinalis infested compound-treated rice leaves assessed as efficacy of conversion of ingested food at 1 ppm measured every 24 hr for 4 days by gravimetric method (reference value: 20.81 +/- 1.58%). Type of experiment: functional.

The test system of experiment [5] is Cnaphalocrocis medinalis. The experiment can be described thus: Antifeedant activity against 4 hr starved fifth-instar larval stage of Cnaphalocrocis medinalis infested compound-treated rice leaves assessed as relative growth rate at 1 ppm measured every 24 hr for 4 days by gravimetric method (reference value: 0.524 +/- 0.03 mg/mg/day). Type of experiment: functional.

The test system of experiment [6] is Cnaphalocrocis medinalis. The experiment can be described thus: Antifeedant activity against 4 hr starved fifth-instar larval stage of Cnaphalocrocis medinalis infested compound-treated rice leaves assessed as consumption index at 1 ppm measured every 24 hr for 4 days by gravimetric method (reference value: 2.52 +/- 0.15 mg/mg/day). The format is functional.
In experiment [7] the test system is Cnaphalocrocis medinalis. The experiment is described as follows: Antifeedant activity against 4 hr starved fifth-instar larval stage of Cnaphalocrocis medinalis infested compound-treated rice leaves assessed as reduction in diet consumption after 12 hr by leaf cut-choice assay. The format is functional, organism-based.
Experiment [8] relates to Cnaphalocrocis medinalis. The experiment is described as follows: Antifeedant activity against 4 hr starved fifth-instar larval stage of Cnaphalocrocis medinalis infested compound-treated rice leaves assessed as feeding deterrence index at 2 ppm after 12 hr by leaf cut-choice assay (reference value: 0.05 +/- 0.003%). Type of experiment: functional.

For the compound `CC(=O)O[C@@H]1C[C@H]2C(C)(C)C(=O)C=C[C@]2(C)[C@H]2CC[C@]3(C)C(=CC(=O)[C@@]3(O)c3ccoc3)[C@@]21C` [17-HYDROXYAZADIRADIONE], the Activity in the experiment on Cnaphalocrocis medinalis [1] was 47.217%; in the experiment on Cnaphalocrocis medinalis [2] it was 0.957 mg/mg/day; in the experiment with Cnaphalocrocis medinalis [3], 38.657%; in the experiment on Cnaphalocrocis medinalis [5], 0.4197 mg/mg/day; with Cnaphalocrocis medinalis [6], 2.307 mg/mg/day; in the experiment with Cnaphalocrocis medinalis [7], “Dose-dependent effect”. The ECI in the experiment on Cnaphalocrocis medinalis [4] worked out at 18.247%. In addition, in the experiment with Cnaphalocrocis medinalis [8], the FDI is on record as 23.6%.

Consider `C/C=C(\C)C(=O)O[C@H]1C[C@@H](OC(C)=O)[C@@]2(C(=O)OC)CO[C@H]3[C@@H](O)[C@@](C)([C@]45O[C@@]4(C)[C@@H]4C[C@H]5O[C@@H]5OC=C[C@@]54O)[C@H]4[C@]1(CO[C@]4(O)C(=O)OC)[C@@H]32` [AZADIRACHTIN A], for which the Activity in the experiment on Cnaphalocrocis medinalis [1] is 52.717%; in the experiment with Cnaphalocrocis medinalis [2], 0.187 mg/mg/day; in the experiment with Cnaphalocrocis medinalis [3], 12.357%; in the experiment with Cnaphalocrocis medinalis [5] it was 0.0277 mg/mg/day; in the experiment on Cnaphalocrocis medinalis [6], 0.427 mg/mg/day; in the experiment with Cnaphalocrocis medinalis [7], “Dose-dependent effect”. The ECI with Cnaphalocrocis medinalis [4] came out at 6.507%. For the same compound, the FDI with Cnaphalocrocis medinalis [8] came to 93.2%.

Take `CC1(C)C(=O)C=C[C@]2(C)[C@H]3CC[C@@]4(C)[C@H](c5ccoc5)OC(=O)[C@H]5O[C@]54[C@]3(C)[C@H](O)C[C@@H]12` [DEACETYLGEDUNIN]: the Activity in the experiment with Cnaphalocrocis medinalis [1] is 48.457%; in the experiment with Cnaphalocrocis medinalis [2] it was 0.927 mg/mg/day; in the experiment on Cnaphalocrocis medinalis [3] it was 36.127%; in the experiment with Cnaphalocrocis medinalis [5] it was 0.3857 mg/mg/day; with Cnaphalocrocis medinalis [6], 2.207 mg/mg/day; in the experiment on Cnaphalocrocis medinalis [7] it was “Dose-dependent effect”. Further, in the experiment with Cnaphalocrocis medinalis [4], the ECI stood at 17.507%. For the same compound, in the experiment with Cnaphalocrocis medinalis [8], the FDI amounted to 23.6%.

Regarding `COC(=O)C[C@H]1[C@]2(C)C3=C(C)[C@H](c4ccoc4)C[C@H]3O[C@@H]2[C@H](O)[C@@H]2[C@]1(C)C(=O)C=C[C@@]2(C)C(=O)OC` [DEACETYLNIMBIN], the Activity with Cnaphalocrocis medinalis [1] was 46.747%; in the experiment with Cnaphalocrocis medinalis [2], 0.957 mg/mg/day; with Cnaphalocrocis medinalis [3] it was 39.117%; in the experiment with Cnaphalocrocis medinalis [5] it was 0.4247 mg/mg/day; in the experiment with Cnaphalocrocis medinalis [6] it was 2.327 mg/mg/day; with Cnaphalocrocis medinalis [7], “Dose-dependent effect”. Further, the ECI in the experiment on Cnaphalocrocis medinalis [4] is 18.287%. Also, in the experiment with Cnaphalocrocis medinalis [8], the FDI is reported as 21%.

For `CC(=O)O[C@@H]1C[C@H]2C(C)(C)C(=O)C=C[C@]2(C)[C@H]2CC[C@@]3(C)[C@H](c4ccoc4)OC(=O)[C@H]4O[C@]43[C@@]21C` [GEDUNIN], the Activity in the experiment with Cnaphalocrocis medinalis [1] was 46.457%; in the experiment on Cnaphalocrocis medinalis [2], 1.007 mg/mg/day; in the experiment on Cnaphalocrocis medinalis [3], 43.157%; in the experiment with Cnaphalocrocis medinalis [5], 0.4707 mg/mg/day; with Cnaphalocrocis medinalis [6] it was 2.357 mg/mg/day; in the experiment on Cnaphalocrocis medinalis [7], “Dose-dependent effect”. Moreover, the ECI in the experiment with Cnaphalocrocis medinalis [4] turned out to be 20.07%. Also, the FDI in the experiment on Cnaphalocrocis medinalis [8] stood at 18.8%.

For the compound `C/C=C(/C)C(=O)O[C@H]1C[C@@H](OC(C)=O)[C@@]2(C)CO[C@H]3[C@H]4O[C@@H]5C[C@@H](c6ccoc6)C(C)=C5[C@@]4(C)[C@H](CC(=O)OC)[C@]1(C)[C@@H]32` [SALANNIN], the Activity with Cnaphalocrocis medinalis [1] is 49.617%; in the experiment on Cnaphalocrocis medinalis [2], 0.557 mg/mg/day; with Cnaphalocrocis medinalis [3], 33.527%; in the experiment with Cnaphalocrocis medinalis [5], 0.2577 mg/mg/day; in the experiment with Cnaphalocrocis medinalis [6] it was 1.557 mg/mg/day; with Cnaphalocrocis medinalis [7] it was “Dose-dependent effect”. In addition, in the experiment with Cnaphalocrocis medinalis [4], the ECI was determined as 16.627%. In addition, the FDI in the experiment on Cnaphalocrocis medinalis [8] is 49.6%.

(Values after ChEMBL document CHEMBL3046516, “Efficacy of neem limonoids on Cnaphalocrocis medinalis (Guenee) (Lepidoptera: Pyralidae) the rice leaffolder” (2005).)
